The subject of the assay is Wnt/β-catenin pathway. As to the kind of experiment: Wnt reporter assay (TCF-Luciferase, Firefly) in DBTRG-05MG cells. The format is cell-based. The conditions noted are these: Homo sapiens, TCF-Luciferase (Firefly) read out, 24 hours after compound addition, range given with mixed units nM and μM, read-out: IC50 value in the reporter assay. Here is the method: Three copies of a 4×TCF responsive elements were cloned into the pcDNA3.1/Zeo(+) vector (Invitrogen) after deletion of the constitutive CMV promoter and the insertion of the Firefly Luciferase from Promega (phFL-TK) to measure the activity of the Wnt/β-catenin pathway. The resulting plasmid was sequenced for quality control.
Cells were grown in 20 μg/ml Zeocin and 20 μg/ml Zeocin plus 30 μg/ml Hygromicin respectively. The cells were plated at a density of 6500 cells/well in poly-D-lysine pre-treated 96 well-plates.
36 hours after plating cells were incubated with 8-points dilutions compound (0.6% DMSO (v/v)). Each compound was tested in triplicate in single plate. Luciferase detection was done with Dual-Luciferase Reporter Assay System (Promega). 24 hours after compound addition, media was removed and 30 μl of 1× lysis buffer was added to each well for 30 minutes. To each well 45 μl of Dual-Glo Luciferase reagent (Promega) were added and after 1 second delay Luciferase was detected for 1 second using Mithras LB940 instrument. After Firefly luciferase quantification 45 μl of Dual Stop & Glo reagent (Promega) were added to each well and […] Renilla was detected using the same parameters described before.
Data were expressed as % of control for Firefly and Renilla luciferase independently; values were calculated using XLFit version 4.2, with a four parameters sigmoid function (XLFit model 205).

For `CCC(=O)CN1CCN(C(=O)[C@H]2CC[C@H](Cn3c(=O)n(C)c4ccc(OC)cc43)CC2)CC1=O` [Example 7, 5-Methoxy-1-methyl-3-{trans-4-[3-oxo-4-(2-oxo-butyl)-piperazine-1-carbonyl]-cyclohexylmethyl}-1,3-dihydro-benzoimidazol-2-one], the concentration for half-maximal inhibition (IC50) was in the range of 35 to 23000 nM.

With `Cn1cc(C2=CCN(C(=O)[C@H]3CC[C@H](Cn4c(=O)n(C)c5ccc(C#N)cc54)CC3)CC2)cn1` [Example 154], the IC50 lay within 35 to 23000 nM.

Consider `COc1ccc2c(c1)n(C[C@H]1CC[C@H](c3nnc(-c4ccc(OC)c(F)c4)o3)CC1)c(=O)n2C` [Example 112], for which the concentration for half-maximal inhibition (IC50) fell in the range of 35 to 23000 nM.

As to `COc1ccc2c(c1)n(C[C@H]1CC[C@H](C(=O)N3CCN(c4cc(C)no4)CC3)CC1)c(=O)n2C` [Example 144], the 50% inhibitory concentration (IC50) lay within 35 to 23000 nM.

On to `COc1ccc2c(c1)n(C[C@H]1CC[C@H](C(=O)N3CCC(c4ncccn4)CC3)CC1)c(=O)n2C` [Example 82], for which the half-maximal inhibitory concentration (IC50) fell in the range of 35 to 23000 nM.

For the compound `Cn1c(=O)n(C[C@H]2CC[C@H](C(=O)N3CCN(c4ncccn4)CC3)CC2)c2ccc(Cl)cc21` [Example 55], the IC50 fell in the range of 35 to 23000 nM.

As for `COc1ccc2c(c1)n(C[C@H]1CC[C@H](c3nnc(C4CCOCC4)o3)CC1)c(=O)n2C` [Example 145], the 50% inhibitory concentration (IC50) lay in the range of 35 to 23000 nM.

As to `Cn1c(=O)n(C[C@H]2CC[C@H](C(=O)Nc3ccncc3)CC2)c2cc(C3CC3)ccc21` [Example 69], the IC50 lay in the range of 35 to 23000 nM.

`COCCOc1ccc2c(n1)n(C[C@H]1CC[C@H](C(=O)N3CCN(c4cnn(C)c4)CC3)CC1)c(=O)n2C` [Example 174]: the half-inhibitory concentration (IC50) lay in the range of 35 to 23000 nM.

In the case of `Cn1c(=O)n(C[C@H]2CC[C@H](C(=O)Nc3ccncc3)CC2)c2nc(Br)ccc21` [Example 116], the concentration for half-maximal inhibition (IC50) is 35 to 23000 nM.

In the case of `COc1ccc2c(c1)n(C[C@H]1CC[C@H](C(=O)N3CCC(C(C)=O)CC3)CC1)c(=O)n2C` [Example 81], the IC50 lay within 35 to 23000 nM.

Turning to `COCCNc1ccc2c(c1)n(C[C@H]1CC[C@H](C(=O)Nc3ccncc3)CC1)c(=O)n2C` [Example 78], the half-maximal inhibitory concentration (IC50) lay in the range of 35 to 23000 nM.

On to `COc1ccc2c(c1)n(C[C@H]1CC[C@H](C(=O)N3CCN(c4ccc(C#N)nc4)CC3)CC1)c(=O)n2C` [Example 88], for which the 50% inhibitory concentration (IC50) was in the range of 35 to 23000 nM.

Consider `Cn1cc(C2=CCN(C(=O)[C@H]3CC[C@H](Cn4c(=O)n(C)c5ccc(=O)[nH]c54)CC3)CC2)cn1` [Example 135], for which the 50% inhibitory concentration (IC50) was in the range of 35 to 23000 nM.

With `COc1ccc2c(c1)n(C[C@H]1CC[C@H](C(=O)Nc3ccncc3C)CC1)c(=O)n2C` [Example 30], the IC50 lay in the range of 35 to 23000 nM.

For the compound `COc1ccc(-c2nc([C@H]3CC[C@H](Cn4c(=O)n(C)c5ccc(OC)cc54)CC3)no2)cc1` [Example 18, 5-Methoxy-3-{trans-4-[5-(4-methoxy-phenyl)[1,2,4]oxadiazol-3-yl]-cyclohexylmethyl}-1-methyl-1,3-dihydro-benzoimidazol-2-one], the half-inhibitory concentration (IC50) was 35 to 23000 nM.

In the case of `COc1ccc2c(c1)n(C[C@H]1CC[C@H](C(=O)Nc3ccnnc3)CC1)c(=O)n2C` [Example 100], the IC50 fell in the range of 35 to 23000 nM.

Turning to `Cn1c(=O)n(C[C@H]2CC[C@H](C(=O)Nc3ccncc3)CC2)c2nc(OCCN3CCOCC3)ccc21` [Example 158], the IC50 was in the range of 35 to 23000 nM.

As for `COCCN(C)c1ncccc1NC(=O)[C@H]1CC[C@H](Cn2c(=O)n(C)c3ccc(OC)cc32)CC1` [Example 45], the IC50 lay within 35 to 23000 nM.

`COc1ccc2c(c1)n(C[C@H]1CC[C@H](C(=O)Nc3cccc4ncccc34)CC1)c(=O)n2C` [Example 188]: the half-maximal inhibitory concentration (IC50) lay in the range of 35 to 23000 nM.

Take `COc1cc(NC(=O)[C@H]2CC[C@H](Cn3c(=O)n(C)c4ccc(Cl)cc43)CC2)ccn1` [Example 52]: the half-maximal inhibitory concentration (IC50) fell in the range of 35 to 23000 nM.

As to `COc1ccc2c(c1)n(C[C@H]1CC[C@H](C(=O)Nc3ccnc(C)c3)CC1)c(=O)n2C` [Example 33], the IC50 lay in the range of 35 to 23000 nM.

As for `CC(=O)N1CCN(C(=O)[C@H]2CC[C@H](Cn3c(=O)n(C)c4ccc(O)cc43)CC2)CC1` [Example 16, 3-[trans-4-(4-Acetyl-piperazine-1-carbonyl)-cyclohexylmethyl]-5-hydroxy-1-methyl-1,3-dihydro-benzoimidazol-2-one], the IC50 lay in the range of 35 to 23000 nM.

Turning to `CN(C)c1ccc2c(n1)n(C[C@H]1CC[C@H](C(=O)Nc3ccncc3)CC1)c(=O)n2C` [Example 120], the IC50 was 35 to 23000 nM.

On to `Cn1c(=O)n(C[C@H]2CC[C@H](C(=O)Nc3ccncc3)CC2)c2nc(OCc3ccccn3)ccc21` [Example 156], for which the half-inhibitory concentration (IC50) was 35 to 23000 nM.

For the compound `Cn1c(=O)n(C[C@H]2CC[C@H](C(=O)N3CCN(c4nccs4)CC3)CC2)c2cccc(Cl)c21` [Example 56], the IC50 is 35 to 23000 nM.

As to `Cn1cc(C2=CCN(C(=O)[C@H]3CC[C@H](Cn4c(=O)n(C)c5ccc(OC(F)F)cc54)CC3)CC2)cn1` [Example 166], the concentration for half-maximal inhibition (IC50) is 35 to 23000 nM.

For the compound `COCC#Cc1ccc2c(n1)n(C[C@H]1CC[C@H](C(=O)N3CCN(C(C)=O)CC3)CC1)c(=O)n2C` [Example 102], the half-inhibitory concentration (IC50) was in the range of 35 to 23000 nM.

With `COc1ccc2c(c1)n(C[C@H]1CC[C@H](c3nnc(-c4ccncc4F)o3)CC1)c(=O)n2C` [Example 109], the half-inhibitory concentration (IC50) lay within 35 to 23000 nM.

Consider `COc1ccc2c(c1)n(C[C@H]1CC[C@H](c3nnc(-c4ccn(C)n4)o3)CC1)c(=O)n2C` [Example 110], for which the half-inhibitory concentration (IC50) is 35 to 23000 nM.

On to `COCCOc1ccc2c(c1)n(C[C@H]1CC[C@H](C(=O)N3CC=C(c4cnn(C)c4)CC3)CC1)c(=O)n2C` [Example 130], for which the concentration for half-maximal inhibition (IC50) lay within 35 to 23000 nM.

Consider `COCCOc1cc(NC(=O)[C@H]2CC[C@H](Cn3c(=O)n(C)c4cc(Cl)ccc43)CC2)ccn1` [Example 57], for which the half-maximal inhibitory concentration (IC50) was 35 to 23000 nM.

On to `COc1ccc2c(c1)n(C[C@H]1CC[C@H](C(=O)N3CCC(c4cnccn4)CC3)CC1)c(=O)n2C` [Example 83], for which the IC50 was in the range of 35 to 23000 nM.

In the case of `COc1ccc2c(c1)n(C[C@H]1CC[C@H](C(=O)N3CCN(c4cnn(C)c4)CC3)CC1)c(=O)n2C` [Example 141], the half-maximal inhibitory concentration (IC50) is 35 to 23000 nM.

Take `COc1ccc2c(c1)n(C[C@H]1CC[C@H](c3nnc(-c4cnc(C)cn4)o3)CC1)c(=O)n2C` [Example 128]: the concentration for half-maximal inhibition (IC50) lay in the range of 35 to 23000 nM.

`COC/C=C/c1ccc2c(n1)n(C[C@H]1CC[C@H](C(=O)Nc3ccncc3)CC1)c(=O)n2C` [Example 114]: the IC50 was in the range of 35 to 23000 nM.

In the case of `Cn1c(=O)n(C[C@H]2CC[C@H](C(=O)Nc3ccncc3)CC2)c2ncccc21` [Example 142], the IC50 was 35 to 23000 nM.

Turning to `Cc1cc(NC(=O)[C@H]2CC[C@H](Cn3c(=O)n(C)c4cc(Cl)ccc43)CC2)ccn1` [Example 48], the IC50 was in the range of 35 to 23000 nM.

As for `COc1ccc2c(c1)n(C[C@H]1CC[C@H](C(=O)N3CCC(c4noc(C)n4)CC3)CC1)c(=O)n2C` [Example 84], the IC50 lay in the range of 35 to 23000 nM.

For `COc1ccc2c(c1)n(C[C@H]1CC[C@H](C(=O)N3CCN(c4nccs4)CC3)CC1)c(=O)n2C` [Example 27], the IC50 is 35 to 23000 nM.

For `Cn1c(=O)n(C[C@H]2CC[C@H](C(=O)Nc3ccncc3)CC2)c2c(Cl)cccc21` [Example 28], the IC50 fell in the range of 35 to 23000 nM.

`Cc1cnccc1NC(=O)[C@H]1CC[C@H](Cn2c(=O)n(C)c3ccc(C4CC4)cc32)CC1` [Example 70]: the IC50 was in the range of 35 to 23000 nM.

On to `Cn1c(=O)n(C[C@H]2CC[C@H](C(=O)Nc3ccncc3)CC2)c2nc(NCc3ccco3)ccc21` [Example 127], for which the half-maximal inhibitory concentration (IC50) was 35 to 23000 nM.

As to `COc1ccc2c(c1)n(C[C@H]1CC[C@H](C(=O)N3CCN(c4ncccn4)CC3)CC1)c(=O)n2C` [Example 2, 5-Methoxy-1-methyl-3-[trans-4-(4-pyrimidin-2-yl-piperazine-1-carbonyl)-cyclohexylmethyl]-1,3-dihydro-benzoimidazol-2-one], the IC50 fell in the range of 35 to 23000 nM.

For `COCCOc1ccc2c(c1)n(C[C@H]1CC[C@H](c3nnc(-c4cccnc4)o3)CC1)c(=O)n2C` [Example 146], the 50% inhibitory concentration (IC50) lay within 35 to 23000 nM.

For `COc1ccc2c(c1)n(C[C@H]1CC[C@H](C(=O)Nc3ccnc(N4CCOCC4)c3)CC1)c(=O)n2C` [Example 50], the half-inhibitory concentration (IC50) fell in the range of 35 to 23000 nM.

As for `COc1ccc2c(c1)n(C[C@H]1CC[C@H](C(=O)N3CCN(c4nccc(OC)n4)CC3)CC1)c(=O)n2C` [Example 51], the 50% inhibitory concentration (IC50) lay in the range of 35 to 23000 nM.

On to `COCCOc1cc2c(cc1F)n(C)c(=O)n2C[C@H]1CC[C@H](C(=O)Nc2ccnnc2)CC1` [Example 176], for which the half-inhibitory concentration (IC50) was 35 to 23000 nM.

Regarding `Cn1cc(-c2nnc([C@H]3CC[C@H](Cn4c(=O)n(C)c5ccc(C#N)cc54)CC3)o2)cn1` [Example 162], the IC50 is 35 to 23000 nM.

In the case of `COc1ccc2c(c1)n(C[C@H]1CC[C@H](C(=O)Nc3cccc(C)n3)CC1)c(=O)n2C` [Example 34], the half-inhibitory concentration (IC50) was in the range of 35 to 23000 nM.

As for `COc1ccc2c(c1)n(C[C@H]1CC[C@H](c3noc(-c4cccnc4)n3)CC1)c(=O)n2C` [Example 172], the IC50 is 35 to 23000 nM.

Consider `COc1ccc2c(c1)n(C[C@H]1CC[C@H](c3nnc(-c4csc(C)n4)o3)CC1)c(=O)n2C` [Example 99], for which the IC50 was 35 to 23000 nM.

In the case of `COc1ccc2c(c1)n(C[C@H]1CC[C@H](C(=O)N3CCN(c4cncnc4)CC3)CC1)c(=O)n2C` [Example 20, 5-Methoxy-1-methyl-3-[trans-4-(4-pyrimidin-5-yl-piperazine-1-carbonyl)-cyclohexylmethyl]-1,3-dihydro-benzoimidazol-2-one], the IC50 is 35 to 23000 nM.

For the compound `Cn1c(=O)n(C[C@H]2CC[C@H](C(=O)Nc3ccncc3)CC2)c2nc(C3CC3)ccc21` [Example 170], the half-maximal inhibitory concentration (IC50) lay in the range of 35 to 23000 nM.

Values taken from patent US20140005164A1, “WNT PATHWAY ANTAGONISTS” (Siena Biotech S.p.A., priority 2011, published 2014).
